Experimental data published in patent US20230174608A1, “Polypeptide Derivative Having Dual Receptor Agonistic Action and Use Thereof” (TIANJIN INSTITUTE OF PHARMACEUTICAL RESEARCH CO., LTD., priority 2020, published 2023).
*1 amine or outer side, *2 acyl side, *3 side chain or, on linkers, in order; H or OH if unused. Where a SMILES comes first, the peptide text is derived from it. Side-chain parts run from the residue outwards. [ ]: non-standard residue; d: D form. The star is where a group is joined. C18 diacid = O=C(O)CCCCCCCCCCCCCCCCC(=O)*; γGlu = O=C(O)[C@H](CCC(=O)[*:2])N[*:1]; Palmitoyl = CCCCCCCCCCCCCCCC(=O)*; AEEA = NCCOCCOCC(=O)O; Aib = CC(C)(N)C(=O)O

Columns and labels:
GLP-1R = target: T1, GLP-1R (Homo sapiens, UniProt P43220); test: GLP-1 receptor-mediated cAMP production in vitro; assay type: cell-based; details: HEK293 cell line stably expressing GLP-1R
T1 construct: expressed in transfected cells
T1 sequence (P43220 24-463, species assumed): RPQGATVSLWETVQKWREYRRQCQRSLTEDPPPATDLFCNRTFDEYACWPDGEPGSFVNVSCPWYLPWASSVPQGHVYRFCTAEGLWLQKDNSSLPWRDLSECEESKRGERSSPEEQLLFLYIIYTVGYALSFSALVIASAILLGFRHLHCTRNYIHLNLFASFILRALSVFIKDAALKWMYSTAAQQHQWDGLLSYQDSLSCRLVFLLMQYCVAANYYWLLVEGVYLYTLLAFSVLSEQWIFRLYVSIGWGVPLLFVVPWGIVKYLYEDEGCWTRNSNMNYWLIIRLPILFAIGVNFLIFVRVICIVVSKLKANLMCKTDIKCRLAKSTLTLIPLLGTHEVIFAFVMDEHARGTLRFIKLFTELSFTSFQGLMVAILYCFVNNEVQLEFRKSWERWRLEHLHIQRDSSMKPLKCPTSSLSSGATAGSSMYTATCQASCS
Procedure: (§1) HEK293 cell line stably expressing GLP-1R or GCGR was used for screening GLP-1R and GCGR agonist.
(§2) Preparation of test sample: each compound was prepared into 100 μM stock solution, and then gradually diluted to working concentrations of 1 μM, 100 nM, 10 nM, 1 nM, 10^−1 nM, 10^−2 nM, 10^−3 nM, and H2O.
(§3) 1) Each compound to be tested was mixed with a serum-free medium (containing 0.1% BSA and 0.5 mM IBMX) to obtain a solution at a concentration 2 times the working concentration.
(§4) 2) The cells were digested, suspended in a serum-free medium (containing 0.5 mM IBMX), counted, and placed in a 384-well plate at a density of 1,000 cells/5 μL/well, then 5 μL of the testing compound was added, and the plate was placed in dark for reaction for 30 min.
(§5) 3) After the reaction was completed, a substrate for detecting cAMP was added, and the plate was placed in dark for reaction at the room temperature for 60 min.
(§6) 4) After the reaction was completed, the plate was placed on the Envision2104 multifunctional microplate reader for detection, and the ratio of optical density (OD) values at 665 nm and 615 nm were read out.

GCGR = target: T2, GCGR (Homo sapiens, UniProt P47871); test: GC receptor-mediated cAMP production in vitro; assay type: cell-based; details: HEK293 cell line stably expressing GCGR
T2 construct: expressed in transfected cells
T2 sequence (P47871 26-477, species assumed): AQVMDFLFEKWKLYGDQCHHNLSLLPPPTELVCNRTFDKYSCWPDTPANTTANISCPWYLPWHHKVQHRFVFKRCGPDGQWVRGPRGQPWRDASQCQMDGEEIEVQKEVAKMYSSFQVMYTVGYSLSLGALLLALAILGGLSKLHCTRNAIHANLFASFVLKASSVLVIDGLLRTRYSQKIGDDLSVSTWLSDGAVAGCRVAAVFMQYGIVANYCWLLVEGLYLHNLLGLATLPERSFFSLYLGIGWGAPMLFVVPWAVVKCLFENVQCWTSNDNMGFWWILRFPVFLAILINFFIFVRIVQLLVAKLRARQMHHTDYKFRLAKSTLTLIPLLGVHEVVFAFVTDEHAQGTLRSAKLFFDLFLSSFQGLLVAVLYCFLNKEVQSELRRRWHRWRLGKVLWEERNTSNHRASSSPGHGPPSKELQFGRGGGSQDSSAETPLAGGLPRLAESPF
Procedure: as §1, §2, §3, §4, §5, §6

EC50 (GLP-1R) [nM]	EC50 (GCGR) [nM]	SMILES
0.955	4.13	CCCCCCCCCCCCCCCC(=O)N[C@@H](CCC(=O)NCCOCCOCC(=O)NCCOCCOCC(=O)NCCCC[C@H](NC(=O)[C@H](C)NC(=O)[C@H](C)NC(=O)[C@H](CCCNC(=N)N)NC(=O)[C@H](CCC(=O)O)NC(=O)[C@H](CCC(=O)O)NC(=O)[C@H](CC(C)C)NC(=O)[C@H](Cc1ccc(O)cc1)NC(=O)[C@H](CCCCN)NC(=O)[C@H](CO)NC(=O)[C@H](Cc1ccc(O)cc1)NC(=O)[C@H](CC(=O)O)NC(=O)[C@H](CO)NC(=O)[C@@H](NC(=O)[C@H](Cc1ccccc1)NC(=O)[C@@H](NC(=O)CNC(=O)[C@H](CCC(N)=O)NC(=O)C(C)(C)NC(=O)[C@@H](N)Cc1c[nH]cn1)[C@@H](C)O)[C@@H](C)O)C(=O)N[C@@H](CCC(=O)O)C(=O)N[C@@H](Cc1ccccc1)C(=O)N[C@H](C(=O)N[C@@H](C)C(=O)N[C@@H](Cc1c[nH]c2ccccc12)C(=O)N[C@@H](CC(C)C)C(=O)N[C@@H](CCC(=O)O)C(=O)N[C@@H](C)C(=O)NCC(=O)NCC(N)=O)[C@@H](C)CC)C(=O)O [dgc011] (H-H[Aib]QGTFTSDYSKYLEERAAK([AEEA-AEEA-γGlu-Palmitoyl])EFIAWLEAGG-NH2; N-terminus assumed)
0.516	0.821	CCCCCCCCCCCCCCCC(=O)N[C@@H](CCC(=O)NCCCC[C@H](NC(=O)[C@H](C)NC(=O)[C@H](C)NC(=O)[C@H](CCCNC(=N)N)NC(=O)[C@H](CCC(=O)O)NC(=O)[C@H](CC(=O)O)NC(=O)[C@H](CC(C)C)NC(=O)[C@H](Cc1ccc(O)cc1)NC(=O)[C@H](CCCCN)NC(=O)[C@H](CO)NC(=O)[C@H](Cc1ccc(O)cc1)NC(=O)[C@H](CC(=O)O)NC(=O)[C@H](CO)NC(=O)[C@@H](NC(=O)[C@H](Cc1ccccc1)NC(=O)[C@@H](NC(=O)CNC(=O)[C@H](CCC(N)=O)NC(=O)C(C)(C)NC(=O)[C@@H](N)Cc1c[nH]cn1)[C@@H](C)O)[C@@H](C)O)C(=O)N[C@@H](CCC(=O)O)C(=O)N[C@@H](Cc1ccccc1)C(=O)N[C@H](C(=O)N[C@@H](C)C(=O)N[C@@H](Cc1c[nH]c2ccccc12)C(=O)N[C@@H](CC(C)C)C(=O)N[C@@H](CCC(=O)O)C(=O)NCC(=O)NCC(N)=O)[C@@H](C)CC)C(=O)O [dgc014] (HELM PEPTIDE1{H.[Aib].Q.G.T.F.T.S.D.Y.S.K.Y.L.D.E.R.A.A.K.E.F.I.A.W.L.E.G.G.[am]}|PEPTIDE2{[CCCCCCCCCCCCCCCC(=O)[*:2]].[gGlu]}$PEPTIDE1,PEPTIDE2,20:R3-2:R2$$$V2.0; N-terminus assumed)
0.401	1.3	CCCCCCCCCCCCCCCC(=O)N[C@@H](CCC(=O)NCCCC[C@H](NC(=O)[C@H](C)NC(=O)[C@H](C)NC(=O)[C@H](CCCNC(=N)N)NC(=O)[C@H](CCC(=O)O)NC(=O)[C@H](CC(=O)O)NC(=O)[C@H](CC(C)C)NC(=O)[C@H](Cc1ccc(O)cc1)NC(=O)[C@H](CCCCN)NC(=O)[C@H](CO)NC(=O)[C@H](Cc1ccc(O)cc1)NC(=O)[C@H](CC(=O)O)NC(=O)[C@H](CO)NC(=O)[C@@H](NC(=O)[C@H](Cc1ccccc1)NC(=O)[C@@H](NC(=O)CNC(=O)[C@H](CCC(N)=O)NC(=O)C(C)(C)NC(=O)[C@@H](N)Cc1c[nH]cn1)[C@@H](C)O)[C@@H](C)O)C(=O)N[C@@H](CCC(=O)O)C(=O)N[C@@H](Cc1ccccc1)C(=O)N[C@H](C(=O)N[C@@H](C)C(=O)N[C@@H](Cc1c[nH]c2ccccc12)C(=O)N[C@@H](CC(C)C)C(=O)N[C@@H](CCC(=O)O)C(=O)NCC(=O)N[C@@H](CCC(=O)O)C(=O)NCC(N)=O)[C@@H](C)CC)C(=O)O [dgc018] (HELM PEPTIDE1{H.[Aib].Q.G.T.F.T.S.D.Y.S.K.Y.L.D.E.R.A.A.K.E.F.I.A.W.L.E.G.E.G.[am]}|PEPTIDE2{[CCCCCCCCCCCCCCCC(=O)[*:2]].[gGlu]}$PEPTIDE1,PEPTIDE2,20:R3-2:R2$$$V2.0; N-terminus assumed)
0.044	2.17	CC(C)C[C@H](NC(=O)[C@H](Cc1c[nH]c2ccccc12)NC(=O)[C@H](C)NC(=O)[C@@H](NC(=O)[C@H](Cc1ccccc1)NC(=O)[C@H](CCC(=O)O)NC(=O)[C@H](CCCCNC(=O)COCCOCCNC(=O)COCCOCCNC(=O)CC[C@H](NC(=O)CCCCCCCCCCCCCCCCC(=O)O)C(=O)O)NC(=O)[C@H](C)NC(=O)[C@H](C)NC(=O)[C@H](CCCNC(=N)N)NC(=O)[C@H](CCC(=O)O)NC(=O)[C@H](CCC(=O)O)NC(=O)[C@H](CC(C)C)NC(=O)[C@H](Cc1ccc(O)cc1)NC(=O)[C@H](CCCCN)NC(=O)[C@H](CO)NC(=O)[C@H](Cc1ccc(O)cc1)NC(=O)[C@H](CC(=O)O)NC(=O)[C@H](CO)NC(=O)[C@@H](NC(=O)[C@H](Cc1ccccc1)NC(=O)[C@@H](NC(=O)CNC(=O)[C@H](CCC(N)=O)NC(=O)[C@@H](CO)NC(=O)[C@@H](N)Cc1c[nH]cn1)[C@@H](C)O)[C@@H](C)O)C(C)C)C(=O)N[C@@H](CCC(=O)O)C(=O)NCC(=O)NCC(N)=O [dgc012] (H-H[dS]QGTFTSDYSKYLEERAAK([AEEA-AEEA-γGlu-C18 diacid])EFVAWLEGG-NH2; N-terminus assumed)
0.28	0.971	CCCCCCCCCCCCCCCC(=O)N[C@@H](CCC(=O)NCCCC[C@H](NC(=O)[C@H](C)NC(=O)[C@H](C)NC(=O)[C@H](CCCNC(=N)N)NC(=O)[C@H](CCC(=O)O)NC(=O)[C@H](CC(=O)O)NC(=O)[C@H](CC(C)C)NC(=O)[C@H](Cc1ccc(O)cc1)NC(=O)[C@H](CCCCN)NC(=O)[C@H](CO)NC(=O)[C@H](Cc1ccc(O)cc1)NC(=O)[C@H](CC(=O)O)NC(=O)[C@H](CO)NC(=O)[C@@H](NC(=O)[C@H](Cc1ccccc1)NC(=O)[C@@H](NC(=O)CNC(=O)[C@H](CCC(N)=O)NC(=O)C(C)(C)NC(=O)[C@@H](N)Cc1c[nH]cn1)[C@@H](C)O)[C@@H](C)O)C(=O)N[C@@H](CCC(=O)O)C(=O)N[C@@H](Cc1ccccc1)C(=O)N[C@H](C(=O)N[C@@H](C)C(=O)N[C@@H](Cc1c[nH]c2ccccc12)C(=O)N[C@@H](CC(C)C)C(=O)N[C@@H](CCC(=O)O)C(=O)N[C@@H](CO)C(=O)NCC(=O)NCC(N)=O)[C@@H](C)CC)C(=O)O [dgc007] (HELM PEPTIDE1{H.[Aib].Q.G.T.F.T.S.D.Y.S.K.Y.L.D.E.R.A.A.K.E.F.I.A.W.L.E.S.G.G.[am]}|PEPTIDE2{[CCCCCCCCCCCCCCCC(=O)[*:2]].[gGlu]}$PEPTIDE1,PEPTIDE2,20:R3-2:R2$$$V2.0; N-terminus assumed)
0.899	1.53	CCCCCCCCCCCCCCCC(=O)N[C@@H](CCC(=O)NCCCC[C@H](NC(=O)[C@H](C)NC(=O)[C@H](C)NC(=O)[C@H](CCCNC(=N)N)NC(=O)[C@H](CCC(=O)O)NC(=O)[C@H](CCC(=O)O)NC(=O)[C@H](CC(C)C)NC(=O)[C@H](Cc1ccc(O)cc1)NC(=O)[C@H](CCCCN)NC(=O)[C@H](CO)NC(=O)[C@H](Cc1ccc(O)cc1)NC(=O)[C@H](CC(=O)O)NC(=O)[C@H](CO)NC(=O)[C@@H](NC(=O)[C@H](Cc1ccccc1)NC(=O)[C@@H](NC(=O)CNC(=O)[C@H](CCC(N)=O)NC(=O)C(C)(C)NC(=O)[C@@H](N)Cc1c[nH]cn1)[C@@H](C)O)[C@@H](C)O)C(=O)N[C@@H](CCC(=O)O)C(=O)N[C@@H](Cc1ccccc1)C(=O)N[C@H](C(=O)N[C@@H](C)C(=O)N[C@@H](Cc1c[nH]c2ccccc12)C(=O)N[C@@H](CC(C)C)C(=O)N[C@@H](CCC(=O)O)C(=O)NCC(=O)NCC(N)=O)[C@@H](C)CC)C(=O)O [dgc015] (HELM PEPTIDE1{H.[Aib].Q.G.T.F.T.S.D.Y.S.K.Y.L.E.E.R.A.A.K.E.F.I.A.W.L.E.G.G.[am]}|PEPTIDE2{[CCCCCCCCCCCCCCCC(=O)[*:2]].[gGlu]}$PEPTIDE1,PEPTIDE2,20:R3-2:R2$$$V2.0; N-terminus assumed)
0.382	3.93	CCCCCCCCCCCCCCCC(=O)N[C@@H](CCC(=O)NCCOCCOCC(=O)NCCOCCOCC(=O)NCCCC[C@H](NC(=O)[C@H](C)NC(=O)[C@H](C)NC(=O)[C@H](CCCNC(=N)N)NC(=O)[C@H](CCC(=O)O)NC(=O)[C@H](CCC(=O)O)NC(=O)[C@H](CC(C)C)NC(=O)[C@H](Cc1ccc(O)cc1)NC(=O)[C@H](CCCCN)NC(=O)[C@H](CO)NC(=O)[C@H](Cc1ccc(O)cc1)NC(=O)[C@H](CC(=O)O)NC(=O)[C@H](CO)NC(=O)[C@@H](NC(=O)[C@H](Cc1ccccc1)NC(=O)[C@@H](NC(=O)CNC(=O)[C@H](CCC(N)=O)NC(=O)C(C)(C)NC(=O)[C@@H](N)Cc1c[nH]cn1)[C@@H](C)O)[C@@H](C)O)C(=O)N[C@@H](CCC(=O)O)C(=O)N[C@@H](Cc1ccccc1)C(=O)N[C@H](C(=O)N[C@@H](C)C(=O)N[C@@H](Cc1c[nH]c2ccccc12)C(=O)N[C@@H](CC(C)C)C(=O)N[C@@H](CCC(=O)O)C(=O)NCC(=O)N[C@@H](CCC(=O)O)C(=O)NCC(N)=O)[C@@H](C)CC)C(=O)O [dgc021] (H-H[Aib]QGTFTSDYSKYLEERAAK([AEEA-AEEA-γGlu-Palmitoyl])EFIAWLEGEG-NH2; N-terminus assumed)
